Experimental data from patent US9801922B2, “Compositions and methods of treating cancer” (UNIVERSITY OF IOWA RESEARCH FOUNDATION, priority 2011, dated 2017).
Where two headings read alike, the source gives them in different places.

What was measured:
MB231 cells = conditions: 24 hrs
Method: MB231 cells were treated with 0.5 μM, 1.0 μM, and 2.0 μM azido-decylTPP and bis-TPP and incubated for 24 hrs. DMSO was added to control dishes to a final concentration of 0.1%. Following a 24 hr. incubation period, cells were plated at densities of 200, 400, 600, 800, and 2,000 cells per dish and incubated for 2 weeks. After incubation, cells were stained with Coomassie blue and counted under a light microscope. Survival fraction was calculated by dividing the number of colonies counted following treatment by the product of the number of cells plated and plating efficiency.

[1] = tested on: Hec50co human endometrial cancer cells; conditions: 2 uM, 24 hrs
Method: Hec50co human endometrial cancer cells were treated with 0.5 μM, 1.0 and 2.0 μM azido-decylTPP and bis-TPP and incubated for 24 hrs. DMSO was added to control dishes to a final concentration of 0.1%. Following a 24 hr. incubation period, cells were plated at densities of 200, 400, 600, 800, 2,000, 5,000, and 10,000 cells per dish and incubated for 2 weeks. After incubation, cells were stained with Coomassie blue and counted under a light microscope. Survival fraction was calculated by dividing the number of colonies counted following treatment by the product of the number of cells plated and plating efficiency. Error bars represent uncertainties of N=2 experiments.

A375 melanoma cells = assay: MTT survival fraction analysis, A375; format: cell-based

Compound: [N-]=[N+]=NCCCCCCCCCC[P+](c1ccccc1)(c1ccccc1)c1ccccc1 [azido-DTPP, (10-azidodecyl)triphenylphosphonium]
- survival fraction (MB231 cells; 0.5 uM): 55%
- survival fraction (MB231 cells; 2 uM): 10%
- survival fraction [1]: 24%

Compound: CCCCC[P+](c1ccccc1)(c1ccccc1)c1ccccc1 [pentyl-TPP]
- cytotoxicity in the absence of BSO, in words (A375 melanoma cells): no effect
- survival fraction (A375 melanoma cells; in the presence of BSO, 2 μM): 70%
- cytotoxicity in the presence of BSO, in words (A375 melanoma cells; up to 2 μM): little cytotoxicity

Compound: decane-1,10-diylbis(triphenylphosphonium) [bis-DTPP]
- survival fraction (MB231 cells; 0.5 uM): 90%
- survival fraction (MB231 cells; 2 uM): 82%
- survival fraction [1]: 66%
